Experimental data as given in article PMC3260554 (Nature Neuroscience, 2010).
Read-outs that look alike come from different tables or passages of the source.

Experiments:
[1] = system: mice; experiment: Acetic acid-induced writhing; assay type: in vivo, Swiss Webster mice
[2] = system: FAAH
[3] = Drug distribution coefficient n-octanol / buffer pH 7.4; assay type: physicochemical; conditions: n-octanol / aqueous buffer pH 7.4, 25±1°C, mean±s.e.m, n = 3
[4] = biological target: T1, FAAH (Mus musculus, UniProt O08914); assay type: in vivo, Swiss Webster mice
T1 sequence (O08914 1-579): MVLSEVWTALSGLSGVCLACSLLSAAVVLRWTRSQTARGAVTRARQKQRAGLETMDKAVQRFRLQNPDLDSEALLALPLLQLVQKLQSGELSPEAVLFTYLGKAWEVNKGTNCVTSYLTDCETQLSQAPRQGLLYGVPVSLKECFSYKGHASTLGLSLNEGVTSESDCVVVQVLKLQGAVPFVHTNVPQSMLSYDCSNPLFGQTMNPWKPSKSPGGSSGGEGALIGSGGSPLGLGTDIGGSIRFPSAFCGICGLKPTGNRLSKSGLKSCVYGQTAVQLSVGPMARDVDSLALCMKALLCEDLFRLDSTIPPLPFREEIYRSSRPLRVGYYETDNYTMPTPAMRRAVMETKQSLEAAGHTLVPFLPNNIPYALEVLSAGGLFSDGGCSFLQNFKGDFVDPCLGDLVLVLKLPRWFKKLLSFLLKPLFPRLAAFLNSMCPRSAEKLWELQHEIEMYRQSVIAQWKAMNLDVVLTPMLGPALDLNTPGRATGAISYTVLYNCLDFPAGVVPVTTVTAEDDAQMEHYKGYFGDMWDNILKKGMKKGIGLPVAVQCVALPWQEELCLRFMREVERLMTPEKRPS

[5] = system: human epithelial TC7 cells; experiment: Permeability and efflux ratio through polarized TC7 monolayers; assay type: in vitro ADME; conditions: mean of 2 independent experiments
[6] = Temporal tissue distribution of URB937 in liver, brain and serum; assay type: in vivo, Swiss Webster mice; conditions: 1 mg-kg^−1, i.p., mice
[7] = system: Fos protein; experiment: Formalin-induced spinal cord Fos protein expression; assay type: in vivo, Sprague-Dawley rats
[8] = ex vivo 1 h after injection, 1 mg-kg^−1 i.p., Swiss Webster mice, n = 3
[9] = s.c., mice, 1 h after injection

COc1ccc(C(=O)c2c(C)n(CCN3CCOCC3)c3cc(I)ccc23)cc1 [AM630]
Effect of antagonist on the antinociceptive effect of URB937 (writhing) ([1]; antagonist 1 mg-kg^−1, s.c., with URB937 1 mg-kg^−1 s.c.): ineffective

COc1ccc2c(c1)c(CC(=O)O)c(C)n2C(=O)c1ccc(Cl)cc1 [indomethacin]
Effect on acetic acid-induced writhing relative to URB937 ([1]; 1 mg-kg^−1, s.c., 1 h before test): comparable in efficacy

NC(=O)c1cccc(-c2cc(OC(=O)NC3CCCCC3)ccc2O)c1 [Compound 1b]
Effect on brain FAAH activity ([2]; 25 mg-kg^−1, i.p.): no effect
distribution coefficient, LogDoct,pH7.4 [3]: 3.03±0.01
Time course of peripheral FAAH inhibition in vivo ([4]; Supplementary Figure 1): rapidly and lastingly
FAAH Inhibition in brain [4, 8]: −3.0 ± 8.0%
FAAH Inhibition in liver [4, 8]: 91.7 ± 0.7%
ED50 for FAAH inhibition in brain [4, 9]: 40 mg/kg
ED50 for FAAH inhibition in liver [4, 9]: 0.2 mg/kg
% recovery A–B [5]: 83%
% recovery B-A [5]: 95%
permeability B-A [5]: 37.1 ×10⁻⁶ cm/s
Distribution in blood and liver after systemic administration [6]: distributed rapidly in blood and liver
Presence in brain tissue after systemic administration [6]: undetectable

Cc1c(C(=O)NN2CCCCC2)nn(-c2ccc(Cl)cc2Cl)c1-c1ccc(Cl)cc1 [rimonabant]
Effect on Fos levels when administered without URB937 ([7]; 2 mg-kg^−1, i.p., rats): did not significantly alter Fos levels
Effect of antagonist on URB937 suppression of Fos expression ([7]; rimonabant 2 mg-kg^−1, i.p., with URB937): prevented

NC(=O)c1cccc(-c2cccc(OC(=O)NC3CCCCC3)c2)c1 [Compound 1a, cyclohexylcarbamic acid 3′-carbamoylbiphenyl-3-yl ester, reference compound]
Effect on brain FAAH activity ([2]; in vivo, ip): markedly reduced
